# From patent US7582618B2 (priority 2002, dated 2009)
# “Also recorded” adds a separate entry of the source. Where two headings read alike, the source gives them in different places.
# Experiments:
# [1] = test system: rig S15 mRNA; assay: Cellular housekeeping mRNA control by RT-PCR in MDBK cells; type: cell-based, bovine; conditions: up to 125 μM
# [2] = Human bone marrow clonogenic assay
# [3] = test system: HepG2 cells; assay: Transmission electron microscopy of mitochondrial ultrastructure; conditions: 10 μM, 14 days
# [4] = test system: Punta Toro A (LLC-MK2); assay: organism not typed; type: cell-based
# [5] = test system: DENV-2 in BHK cells; assay: Cell protection assay; type: cell-based; conditions: Dengue virus, DENV2, DENV-2, BHK
# [6] = Cytotoxicity (Table 10); conditions: rhesus monkey, MA-104 cells
# [7] = test system: EBV (Daudi); assay: microbe, parasite or virus in culture; type: cell-based; conditions: human gammaherpesvirus 4, Daudi
# [8] = Cytotoxicity (cell proliferation) assay; conditions: hamster, BHK-21 kidney cells
# [9] = Cytotoxicity (cell proliferation) assay; conditions: human
# [10] = test system: DENV 2; assay: Antiviral test (Table 8b); type: cell-based; conditions: Dengue virus
# [11] = test system: BVDV; assay: Antiviral test (Table 8b); type: cell-based; conditions: Bovine viral diarrhea virus isolates and strains; table note: BHK for Bovine Viral Diarrhea Virus
# [12] = test system: CVB-2; assay: Antiviral test (Tables 8b, 8c); type: cell-based, Coxsackievirus B-2; conditions: Coxsackievirus
# [13] = test system: BVDV (strain NADL) in MDBK cells; assay: BVDV cell protection assay (CPA); type: cell-based; conditions: Bovine viral diarrhea virus isolates and strains
# [14] = test system: BVDV NADL cp in MDBK cells; assay: Yield reduction assay; type: cell-based, bovine viral diarrhea virus
# [15] = test system: BVDV RNA; assay: Intracellular BVDV RNA by Real Time RT-PCR in de novo-infected MDBK cells; type: cell-based; conditions: Bovine viral diarrhea virus isolates and strains, 18-hours post infection
# [16] = Cytotoxicity (cell proliferation) assay; conditions: human, Huh7 hepatoma cells
# [17] = Cytotoxicity (Table 10); conditions: human, A549 cells
# [18] = test system: BVDV (strain I-N-dIns), noncytopathic; type: cell-based, bovine viral diarrhea virus
# [19] = test system: Huh7 cells; assay: Mitochondria toxicity assay, lactic acid production; conditions: 10 μM, 4 days
# [20] = test system: HepG2 cells; assay: Mitochondrial DNA content (mtDNA/nuclear DNA); type: cell-based, human; conditions: 10 μM
# Protocol: To assess the potential of mCyd to produce mitochondrial toxicity, several in vitro studies were conducted using the human hepatoma cell lines HepG2 or Huh7.
# • a. HepG2 or huh7 cells were treated with compounds for 4 days, data represent at least three independent experiments • b. HepG2 cells were treated with compounds for 6 and 14 days, data represents at least three independent experiments • c. HepG2 cells were treated with compounds for 14 days • d. 17% cell (11 of 64) contained 1 or 2 enlarged mitochondria out of 25 in two independent experiments nd, not determined
# [21] = test system: West Nile virus; assay: microbe, parasite or virus in culture; type: cell-based; conditions: read-out: composite EC50 range, West Nile virus
# [22] = in vitro; conditions: rhesus monkey
# [23] = Cytotoxicity (Table 10); type: cell-based; conditions: human, Daudi cells, EBV row
# [24] = test system: BVDV I-NADL cp in MDBK cells; assay: Yield reduction assay; type: cell-based; conditions: Bovine viral diarrhea virus isolates and strains
# Protocol: For each compound the concentration to obtain a 6-log reduction in viral load was determined in duplicate 24-well plates by yield reduction assays. The assay was performed as described by Baginski, S. G.; Pevear, D. C.; Seipel, M.; Sun, S. C. C.; Benetatos, C. A.; Chunduru, S. K.; Rice, C. M. and M. S. Collett “Mechanism of action of a pestivirus antiviral compound” PNAS USA 2000, 97(14), 7981-7986, with minor modifications. Briefly, MDBK cells were seeded onto 24-well plates (2×10^5 cells per well) 24 hours before infection with BVDV (NADL strain) at a multiplicity of infection (MOI) of 0.1 PFU per cell. Serial dilutions of test compounds were added to cells in a final concentration of 0.5% DMSO in growth medium. Each dilution was tested in triplicate. After three days, cell cultures (cell monolayers and supernatants) were lysed by three freeze-thaw cycles, and virus yield was quantified by plaque assay. Briefly, MDBK cells were seeded onto 6-well plates (5×10^5 cells per well) 24 h before use. Cells were inoculated with 0.2 mL of test lysates for 1 hour, washed and overlaid with 0.5% agarose in growth medium. After 3 days, cell monolayers were fixed with 3.5% formaldehyde and stained with 1% crystal violet (w/v in 50% ethanol) to visualize plaques. The plaques were counted to determine the concentration to obtain a 6-log reduction in viral load.
# [25] = test system: CVA-9; assay: microbe, parasite or virus in culture; type: cell-based, Coxsackievirus A-9; conditions: Coxsackievirus, read-out: EC50 CVA-9
# [26] = test system: BVDV New York-1 ncp in MDBK cells; assay: Yield reduction assay; type: cell-based, bovine viral diarrhea virus
# [27] = Cytotoxicity assay; conditions: mouse
# [28] = Human bone marrow clonogenic assay; remark: listed apart in the source
compound,measurement,setting,value
"CC1(O)C(O)C(CO)OC1n1ccc(N)nc1=O (centres unmarked) [mCyd, 4-Amino-1-(3,4-dihydroxy-5-hydroxymethyl-3-methyl-tetrahydro-furan-2-yl)-1H-pyrimidine-2-one]",effect on level of rig S15 cellular mRNA control,[1],No effect
same,CC50,[2],14.1 ± 4.5 µM
same,"Electron Microscopy, Lipid Droplet Form.",[3],Negative
same,"Electron Microscopy, Mito. Morphol.",[3],"No changes in cell architecture, or in mitochondrial number or morphology; also recorded: Normal^d"
same,cells with 1 to 2 enlarged mitochondria out of an average of 25 per cell,[3],17%
same,EC50,[4],> 200 µM
same,EC50,[5],95 µM
same,CC50,[6],200 µM
same,CC50,"[6]; CC50, MA-104, Parainfluenza type 3 row",> 200 µM
same,EC50,[7],25.5 µg/mL
same,CC50 at 4 days,[8],132 µM
same,CC50,[9],> 200 µM
same,CC50,"[9]; HepG2 hepatoma cells on collagen-coated plates, CC50, HepG2 grown on collagen coated plates for 4 or 10 d",≥ 200 µM
same,CC50 at 4 days,"[9]; HepG2 hepatoma cells, CC50, HepG2, rapid cell division",161 µM
same,EC50,[10],95 µM
same,EC50,[11],2.3 µM
same,EC50,"[12]; Table 8c, read-out: EC50 CVB-2",11 µM
same,EC50,[12]; read-out: CVB-2 (Table 8b),12 µM
same,EC50,"[13]; 96 h, BVDV NADL cp, de novo infection, 4 days",0.67 ± 0.22 µM
same,EC50,[13]; BVDV MOI 0.16,~2.2 µM
same,EC50,"[14]; Bovine viral diarrhea virus isolates and strains, yield reduction, BVDV NADL cp, MDBK",2.77 ± 1.16 µM
same,EC90,"[14]; Bovine viral diarrhea virus isolates and strains, yield reduction, BVDV NADL cp, MDBK, read-out: Antiviral Efficacy EC90",4.8 ± 1.55 µM
same,suppression of de novo BVDV production,"[14]; yield reduction assay, circa 20 μM",up to 6 log10
same,Antiviral Efficacy EC4 log,"[14]; yield reduction, BVDV NADL cp, MDBK",13.9 ± 3.07 μM
same,EC50,"[15]; read-out: EC50, BVDV RNA levels",1.7 µM
same,EC90,"[15]; read-out: EC90, BVDV RNA levels",2.3 µM
same,CC50 at 4 days,[16],> 250 µM
same,CC50,[17],> 200 µM
same,virus detection under prolonged treatment,"[18]; 8 μM, after two passages, re-emerged by passage 6",no longer detectable
same,virus production,"[18]; 16 μM, from more than 6 logs of virus per ml, within two cell passages",undetectable levels
same,"L-Lactate (% of Control), Huh7 Cells",[19],98.0 ± 12.3 % of Control
same,"mtDNA/nuclear DNA (% of Control), 6 day Treatment",[20],117.3 ± 17.5 % of Control
same,"mtDNA/nuclear DNA (% of Control), 14 day Treatment",[20],99.7 ± 23.9 % of Control
same,EC50,[21],46 to 97 µM
same,CC50,[22],> 200 µM
same,CC50,[23],> 50 µg/mL
same,EC50,[24],0.68 µM
same,EC90,[24]; read-out: Antiviral Efficacy EC90,1.73 µM
same,EC50,[25],26 µM
same,Antiviral Efficacy EC4 log,[26],6.03 ± 1.41 μM
same,EC50,[26]; Bovine viral diarrhea virus isolates and strains,0.3 ± 0.07 µM
same,EC90,"[26]; Bovine viral diarrhea virus isolates and strains, read-out: Antiviral Efficacy EC90",0.87 ± 0.18 µM
same,CC50,[27],2.4 µM
same,CC50,[28],13.9 ± 3.2 µM
